Calls of active or inactive are those of the source.
Tests used:
[1] = biological target: T1, Replicative DNA helicase DnaB (Mycobacterium tuberculosis, UniProt P9WMR3); experiment: DnaB intein splicing inhibitors, dose response, biochemical, cell-free fluorescence (AID 449749); format: functional
T1 sequence (P9WMR3 whole entry): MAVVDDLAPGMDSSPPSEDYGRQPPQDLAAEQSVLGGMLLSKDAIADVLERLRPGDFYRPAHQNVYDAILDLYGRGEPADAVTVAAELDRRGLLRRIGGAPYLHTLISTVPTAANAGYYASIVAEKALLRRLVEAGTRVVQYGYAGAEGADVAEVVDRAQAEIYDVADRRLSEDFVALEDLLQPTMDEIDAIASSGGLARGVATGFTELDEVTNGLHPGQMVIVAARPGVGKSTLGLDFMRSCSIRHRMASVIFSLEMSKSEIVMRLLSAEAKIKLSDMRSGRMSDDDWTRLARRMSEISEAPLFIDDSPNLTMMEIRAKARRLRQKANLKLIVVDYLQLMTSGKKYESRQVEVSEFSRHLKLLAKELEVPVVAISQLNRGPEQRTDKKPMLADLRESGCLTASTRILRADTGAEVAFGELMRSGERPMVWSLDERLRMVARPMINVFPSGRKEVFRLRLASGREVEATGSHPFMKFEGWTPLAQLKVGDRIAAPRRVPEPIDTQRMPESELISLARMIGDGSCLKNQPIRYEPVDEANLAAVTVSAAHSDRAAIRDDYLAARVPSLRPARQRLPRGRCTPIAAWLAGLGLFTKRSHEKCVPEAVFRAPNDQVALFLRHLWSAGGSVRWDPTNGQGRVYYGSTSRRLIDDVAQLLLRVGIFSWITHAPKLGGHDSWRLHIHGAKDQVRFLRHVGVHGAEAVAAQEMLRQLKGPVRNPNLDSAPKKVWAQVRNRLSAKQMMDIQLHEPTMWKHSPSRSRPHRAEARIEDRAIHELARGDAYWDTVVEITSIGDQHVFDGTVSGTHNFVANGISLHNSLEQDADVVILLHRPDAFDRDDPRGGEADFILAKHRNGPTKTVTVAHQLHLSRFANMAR

[2] = biological target: T2, Sentrin-specific protease 7 (Homo sapiens, UniProt Q9BQF6); format: functional;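 also: Luminescence-based dose-response confirmation of ultra-high-throughput screening hits, measuring inhibition of SENP7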
T2 sequence (Q9BQF6 whole entry): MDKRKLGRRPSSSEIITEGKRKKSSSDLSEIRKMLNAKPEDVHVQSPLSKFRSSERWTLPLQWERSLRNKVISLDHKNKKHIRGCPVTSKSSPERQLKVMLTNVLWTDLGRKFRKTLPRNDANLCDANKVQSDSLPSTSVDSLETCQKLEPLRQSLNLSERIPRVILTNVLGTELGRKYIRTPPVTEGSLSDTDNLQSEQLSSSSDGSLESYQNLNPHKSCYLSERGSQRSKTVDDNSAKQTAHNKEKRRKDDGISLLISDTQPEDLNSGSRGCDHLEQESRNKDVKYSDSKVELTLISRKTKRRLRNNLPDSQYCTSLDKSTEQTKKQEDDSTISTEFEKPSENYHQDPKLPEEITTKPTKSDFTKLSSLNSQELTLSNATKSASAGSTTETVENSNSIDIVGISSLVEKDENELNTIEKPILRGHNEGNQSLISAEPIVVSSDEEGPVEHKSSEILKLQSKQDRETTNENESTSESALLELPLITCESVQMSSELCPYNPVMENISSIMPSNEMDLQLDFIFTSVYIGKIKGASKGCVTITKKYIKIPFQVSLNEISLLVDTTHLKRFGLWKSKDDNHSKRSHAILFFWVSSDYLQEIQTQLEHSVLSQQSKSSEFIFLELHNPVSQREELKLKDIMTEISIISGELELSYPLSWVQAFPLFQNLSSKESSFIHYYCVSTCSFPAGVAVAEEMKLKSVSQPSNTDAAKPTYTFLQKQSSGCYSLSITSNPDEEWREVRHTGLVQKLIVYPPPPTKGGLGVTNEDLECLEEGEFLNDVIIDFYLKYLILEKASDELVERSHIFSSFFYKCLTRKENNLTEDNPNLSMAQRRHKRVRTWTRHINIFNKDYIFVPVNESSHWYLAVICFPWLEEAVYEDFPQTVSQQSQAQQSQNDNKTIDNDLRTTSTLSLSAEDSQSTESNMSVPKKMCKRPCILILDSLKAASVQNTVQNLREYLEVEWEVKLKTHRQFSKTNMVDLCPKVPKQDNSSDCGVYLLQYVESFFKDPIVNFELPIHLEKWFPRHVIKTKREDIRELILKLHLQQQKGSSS

In the case of `Cn1c(=O)[nH]c(=O)c2c1nc([N+](=O)[O-])n2Cc1ccccc1`, the AC50 [1] is reported as 26.2 µM (active).

For `O=C(NC1(O)C(=O)c2ccccc2C1=O)c1ccc(C(F)(F)F)cc1`, the IC50 [2] was 3.51 µM (active).

In the case of `CCN(c1ccccc1)c1cc2ccccc2c(=O)[nH]1`, the AC50 [1] is reported as > 380 µM (inactive) and the IC50 [2] is reported as 3.37 µM (active).

`O=C(COC(=O)c1ccc([N+](=O)[O-])s1)Nc1ncc(C(F)(F)F)cc1Cl` was tested, and the IC50 [2] was 10.5 µM (active).

In the case of `O=C(NC1(O)C(=O)c2ccccc2C1=O)c1c(Cl)cccc1Cl`, the AC50 [1] is reported as 17.3 µM (active) and the IC50 [2] is reported as 3.76 µM (active).

From ChEMBL document CHEMBL1201862, “PubChem BioAssay data set” (2004)
